Experimental data reported in patent publication US20080021106A1, “CELLULAR UPTAKE OF BIOACTIVE AGENTS” (Aesgen, Inc., priority 1999, published 2008).
Where two headings read alike, the source gives them in different places. Where a SMILES comes first, the peptide text is derived from it. [ ]: non-standard residue; d: D form. Sar = CNCC(=O)O

Experiments:
[1] = tested on: Caco-2 cell monolayers
Description: (§1) Uptake and permeability of each compound was measured in the apical-to-basolateral direction, with and without vehicle.
(§2) Each compound was tritiated. ^14C-mannitol was used as an evaluation of monolayer/cell integrity (i.e. as a low uptake/permeability marker).
(§3) Uptake and Permeability Assessments. Compound cellular uptake into and permeability across Caco-2 monolayers was measured.
(§4) Monolayer integrity was monitored using ^14C-mannitol permeability. Mannitol uptake was also studied.
(§5) ^14C-mannitol and ^3H-drugs were quantified by liquid scintillation counting. For uptake studies, at designated time points (10 sec, 60 sec, and 5 min), the donor solution was aspirated off. The cell monolayer was washed twice with ice cold HBSS to remove any residual binding and then dissolved in 1 ml of the cell solubilizing agent, Solvable®. The cell lysate (0.5 ml) was added to 5 ml scintillation cocktail (Econosafe®) and counted on liquid scintillation counter (Beckman LS5801, Columbia, Md.). For permeability studies, 0.5 ml of received solution was added to 5 ml scintillation cocktail (Econosafe®) and counted on liquid scintillation counter.
(§6) Permeability (3) in each experiment was calculated (FIG. 8-12) using eq 1: [formula] where P is permeability, dM/dt is rate of drug mass accumulation (i.e., radioactivity) in receiver compartment, A is area, and Cd is donor drug concentration (i.e., radioactivity). […] Permeability is an absolute measure (units of cm/Sec or velocity) and can be determined even though the absolute drug concentrations were not known.

[2] = tested on: Caco-2 cell monolayers; remark: listed apart in the source
Description: as §1, §2, §3, §4, §5
(§7) Since saturated solutions of unknown concentration of drugs were used, absolute uptake could not be calculated.

[3] = tested on: Caco-2 cell monolayers; assay: Caco-2 permeability, apical to basolateral, with and without vehicle; details: no vehicle vs with vehicle, 5 min period (FIG. 8-12)
Description: as §1, §2, §3, §4, §5, §6

[4] = tested on: Caco-2 cell monolayers; assay: Cellular uptake of tritiated drugs and 14C-mannitol into Caco-2 monolayers, with and without vehicle; details: saturated solutions, AES-14 / blank AES-14 vs HBSS, up to 5 min
Description: as §1, §2, §3, §4, §5, §7

SMILES: NC(=O)C[C@H](N)C(=O)O [L-asparagine]
- effect of Aesgen-14 vehicle on Caco-2 permeability (in words) [1]: no effect

SMILES: NC(=O)CC[C@H](N)C(=O)O [L-glutamine]
- enhancement of cellular uptake by vehicle [2]: To perhaps a lesser extent, vehicle enhanced
- effect of Aesgen-14 vehicle on Caco-2 permeability (in words) [1]: no effect

SMILES: OC[C@@H](O)[C@@H](O)[C@H](O)[C@H](O)CO [Mannitol, mannitol]
- effect of vehicle on mannitol relative uptake (in words) [2]: no effect
- effect of vehicle on mannitol permeability (in words) [1]: no effect

SMILES: CN(CC(=O)O)C(=O)CN [glycylsarcosine] (H-Gly-[Sar]-OH)
- effect of Aesgen-14 vehicle on Caco-2 permeability (in words) [3]: no effect
- enhancement of cellular drug uptake by vehicle (relative uptake vehicle vs HBSS) [4]: about four-fold
